The source of these data is US20260306452A1, “5-METHOXY-N,N-DIMETHYLTRYPTAMINE (5-MEO-DMT) PHARMACEUTICAL COMPOSITIONS” (Beckley Psytech Limited, priority 2023, published 2026).

Data set [1] can be described thus: Phase 1 single ascending dose study, intranasal 5-MeO-DMT HCl, plasma pharmacokinetics. The format is in vivo, human (healthy subjects). On the procedure:
In an embodiment, there is provided a dose-proportional salt of 5-MeO-DMT for use in the methods disclosed herein. In an embodiment, the dose-proportional salt of 5-MeO-DMT is the benzoate salt. A double-blind, randomised, Phase 1, single ascending dose study to evaluate the safety, tolerability and pharmacokinetic profile of intranasal 5-MeO-DMT HCl (5-MeO-DMT HCl, HPMC, water for injection (WFI) and a sodium hydroxide solution to adjust pH) in healthy subjects was performed.

The format of data set [2] is in vivo, human (healthy subjects). On the procedure:
A double-blind, randomised, Phase 1, single ascending dose study to evaluate the safety, tolerability and pharmacokinetic profile of intranasal 5-MeO-DMT benzoate in healthy subjects was performed.

Data set [3] can be described thus: 30-item Mystical Experience Questionnaire (MEQ30), mystical / peak experience. It counts as in vivo, human. The text has this: The MEQ30 is a self-report measure that has been used to measure mystical-type experiences in studies of psychedelics. It is known that the occurrence of a mystical experience, following treatment with a psychedelic, is a primary predictor of therapeutic outcomes in patients. Typically, a complete mystical experience is defined as scoring 60% or more on all four factors of the MEQ30. The four factors of the MEQ30 are: mystical, positive mood, transcendence of time and space, and ineffability. Subjects being treated with the 5-MeO-DMT salt are coached prior to dosing, but nevertheless for some subjects, a rapid onset of an intense Mystical Experience can be unsettling. In such a scenario, the medical practitioners and associated support system is also put under an additional monitoring and care load. So, the frequency/likelihood of rapid onset of an intense Mystical Experience using the 5-MeO-DMT salt should be minimised or substantially eliminated.
Each quadrant of a pie is fully coloured if a value equal to or greater than 3 is reached for that dimension (wherein the four quadrants represent the four factors of the MEQ30: mystical, positive mood, transcendence of time and space, and ineffability). Each pie represents a single individual who received the respective dose. It can be seen that the 4/6 individuals who received 12 mg total dose of 5-MeO-DMT benzoate in a biphasic fashion achieved mystical experiences, which represents a 66% success rate.

Data set [4] can be described thus: Subjective Dose Intensity (SDI) / duration of the trip. It counts as in vivo, human.
The format of data set [5] is in vivo, human. The text has this: For example, some subjects report nasal discomfort when treated with a single intranasal dose of a salt of 5-MeO-DMT. Additionally, some subjects experienced nausea and vomiting when given a higher single dose of a salt of 5-MeO-DMT. So, the frequency/likelihood of physical discomfort when using the 5-MeO-DMT salt should be minimised or substantially eliminated.

Data set [6] is described as follows: Hygroscopicity / water uptake. The format is physicochemical. The settings on record: for total water uptake: between 0% RH and 90% RH at 25° C. As for the experimental part:
(§1) In an embodiment, the 5-MeO-DMT is administered as a crystalline form of the benzoate salt. Crystalline forms of the benzoate salt are disclosed in WO2021250434 and are incorporated herein. Crystalline forms of the hydrochloride salt are also disclosed in WO2021250434 and are incorporated herein. In an embodiment, crystalline 5-MeO-DMT hydrochloride is characterised by peaks in an X-ray powder diffraction (XRPD) diffractogram at 2θ values of 9.2°±0.1°, 12.2°±0.1°, 14.1°±0.1°, 15.0°±0.1°, 18.5°±0.1°, and 19.5°±0.1°, as measured using an X-ray wavelength of 1.5406 Å. In an embodiment, the 5-MeO-DMT salt is a non-hygroscopic salt. […] The non-hygroscopic, highly soluble HBr salt of 5-MeO-DMT therefore affords the advantage of removing the need for costly and burdensome processing measures, for example the need for low humidity manufacturing environment.

The nature of data set [7]: Stability profile.
Data set [8] is described as follows: Irritation tolerability. The settings on record: in particular compared to the chloride salt.
The nature of data set [9]: Solubility of salts. It counts as physicochemical. The settings on record: compared to moderately hygroscopic salts, e.g. benzoate or oxalate. As for the experimental part: as §1
The mark [10] stands for this setting: 6 mg intranasal, single nostril.
Where [11] appears, read: 8 mg intranasal, single nostril.
[12] abbreviates: 10 mg intranasal, single nostril.
[13] abbreviates: 12 mg (biphasic): 4 mg one nostril then 8 mg other nostril.
Where [14] appears, read: 12 mg biphasic vs 12 mg monophasic.
[15] abbreviates: 12 mg intranasal, single nostril (monophasic).
[16] abbreviates: 12 mg total dose, biphasic (4 mg + 8 mg).

Counter-ions that a name gives are not always drawn. Like-named read-outs stand apart in the source and are kept apart here.

With `COc1ccc2[nH]cc(CCN(C)C)c2c1.Cl` [5-MeO-DMT HCl], in [1] (5 mg, 8 mg, 10 mg, 11 mg and 14 mg intranasal), the “mean concentration profiles between doses” value is listed as “substantially similar”. In addition, the dose-proportional pharmacokinetics result in data set [1] (intranasal, healthy subjects) is listed as “does not display dose-proportional pharmacokinetics”.

What is called Cmax is the highest concentration seen after dosing. By Tmax is commonly meant the time from dosing to the highest level. As to `COc1ccc2[nH]cc(CCN(C)C)c2c1.O=C(O)c1ccccc1` [5-MeO-DMT benzoate, 5-methoxy-N,N-dimethyltryptamine (5-MeO-DMT) Benzoate], the AUC inf worked out at 5.0 ng·h/mL in data set [2] (4 mg intranasal); 9.8 ng·h/mL in data set [2] (setting [10]); 14 ng·h/mL in data set [2] (setting [11]); 15.4 ng·h/mL in [2] (setting [12]); 10.7 ng·h/mL in data set [2] (setting [13]); 23 ng·h/mL in data set [2] (setting [15]). Moreover, the Cmax is 8.7 ng/mL in data set [2] (4 mg intranasal); 14.9 ng/mL in data set [2] (setting [10]); 22.1 ng/mL in data set [2] (setting [11]); 32.3 ng/mL in data set [2] (setting [12]); 16.7 ng/mL in data set [2] (setting [13]); 28.9 ng/mL in [2] (setting [15]). In addition, the Tmax came to 7.0 min in data set [2] (4 mg intranasal); 9.0 min in data set [2] (setting [10]); 10.6 min in data set [2] (setting [11]); 8.4 min in data set [2] (setting [12]); 27 min in data set [2] (setting [13]); 15.3 min in data set [2] (setting [15]). The T½ in [2] (4 mg intranasal) was found to be 22.4 min; in data set [2] (setting [10]), 22.2 min; in data set [2] (setting [11]), 17.7 min; in data set [2] (setting [12]), 22.7 min; in data set [2] (setting [13]), 16.1 min; in data set [2] (setting [15]) it was 26.6 min. For the same compound, in data set [2] (setting [14]), the “peak plasma concentration, comparison” value is “lower peak plasma concentration”. Further, in data set [2] (setting [14]), the “rise to peak mean plasma concentration” value was “slower rise to peak mean plasma concentration”. Further, the “mean Cmax” value in [2] (12 mg dosage, intranasal) turned out to be 29 ng/mL. For the same compound, the “observed peak plasma concentration vs prediction” value in [2] (biphasic administration) is “significantly lower than that which was expected”. The “dose linearity of pharmacokinetics” value in [2] (intranasal, healthy subjects) was “approximately dose linear”. The efficacy entry in [3] (4 mg first dose followed by 8 mg second dose) was “good efficacy”. Further, the “Peak exp. (%)” value was 0% in [3] (4 mg intranasal); 25% in data set [3] (setting [10]); 20% in [3] (setting [11]); 60% in [3] (setting [12]); 66% in data set [3] (setting [13]); 60% in data set [3] (setting [15]). Further, the “% peak experience, comparison” value in [3] (12 mg biphasic vs other doses) is reported as “the highest % peak experience”. Further, in [3] (setting [16]), the “individuals who achieved mystical experiences” value is recorded as 4/6. Besides, the “success rate (mystical experiences, MEQ30)” value in [3] (setting [16]) turned out to be 66%; in [3] (singular 10 mg dose) it was 60%; in data set [3] (singular 12 mg dose) it was 60%. Further, the MEQ30 score in data set [3] (single intranasal dose) is given as > 3. Moreover, the “Duration of the trip (estimate based on intensity)” value is 18 min in data set [4] (4 mg intranasal); 31 min in data set [4] (setting [10]); 40 min in data set [4] (setting [11]); 46 min in data set [4] (setting [12]); 70 min in data set [4] (setting [13]); 50 min in data set [4] (setting [15]). Besides, the “length of psychedelic experience, comparison” value in [4] (setting [14]) was “longer psychedelic experience”. The “duration of ‘trip’, comparison” value in data set [4] (12 mg biphasic vs other doses) is on record as “longer duration of ‘trip’”. For the same compound, in data set [4] (biphasic administration), the “subjective intensity/mystical experience despite lower peak plasma concentration” value is reported as “did not result in a lower subjective intensity/mystical experience”. Further, the “Vomiting (% subj. incl. PBO)” value in data set [5] (4 mg intranasal) is listed as 33%; in data set [5] (setting [10]), 0%; in data set [5] (setting [11]), 0%; in data set [5] (setting [12]) it was 0%; in data set [5] (setting [13]) it was 17%; in [5] (setting [15]), 29%. In data set [5] (intranasal), the overall tolerability profile entry was “good (and better than the corresponding and better known chloride salt)”. Also, the hygroscopicity entry in data set [6] is reported as “moderately hygroscopic”. For the same compound, in data set [7], the stability profile entry is recorded as “good stability profile”. Also, in data set [8], the irritation tolerability result is “good irritation tolerability”.

With `Br.COc1ccc2[nH]cc(CCN(C)C)c2c1` [5-MeO-DMT hydrobromide], in data set [6], the hygroscopicity entry is given as “substantially non-hygroscopic”. In data set [9], the solubility entry is on record as “high solubility”.

Regarding `COc1ccc2[nH]cc(CCN(C)C)c2c1` [5-MeO-DMT ketoglutarate], the “rapid increase of water uptake” value in [6] (90% RH) is 28.140 w/w. For the same compound, the “gradual water uptake, lower humidity” value in data set [6] (403RH as printed) is on record as 0.13 % w/w. Moreover, the “gradual water uptake, upper humidity” value in data set [6] (801 RH as printed) came to 2.55 w/w.

As for `COc1ccc2[nH]cc(CCN(C)C)c2c1.O=C(O)C(=O)O` [5-MeO-DMT oxalate], the hygroscopicity entry in data set [6] is listed as “moderately hygroscopic”.

As to `COc1ccc2[nH]cc(CCN(C)C)c2c1` [5-MeO-DMT phosphate], in [6] (listed as phosphate salt), the hygroscopicity entry was “slightly hygroscopic”.

For the compound `COc1ccc2[nH]cc(CCN(C)C)c2c1` [5-MeO-DMT tartrate], the total water uptake entry in data set [6] was “approximately 3.3 % w/w”. Also, the hygroscopicity entry in [6] (listed as tartrate salt of 5-MeO-DMT) is recorded as “moderately hygroscopic”.

For the compound `COc1ccc2[nH]cc(CCN(C)C)c2c1` [5-MeO-DMT tosylate], in [6], the total water uptake result is on record as “approximately 1.9 % w/w”. Also, in data set [6] (listed as tosylate salt), the hygroscopicity result is “slightly hygroscopic”.

For `COc1ccc2[nH]cc(CCN(C)C)c2c1` [5-MeO-DMT, 5-methoxy-N,N-dimethyltryptamine], in data set [2] (biphasic administration), the “shape of mean plasma concentration curve” value is on record as “m-like biphasic curve”.

As for `CN(C)CCc1c[nH]c2ccc(O)cc12` [Bufotenin], the “detection of the O-demethylated metabolite in plasma” value in [2] (6 mg dose level of 5-MeO-DMT benzoate, after the 16 minutes time point) was “only detected at very low levels”.
